Test results as given in PubChem BioAssay (NCI).
Where “and” joins values, the source holds several entries; their conditions need not be identical. Equal values may be shown once.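 48-hour exposure; five concentrations; linearly interpolated endpoints. Abbreviation: GI50, concentration required for 50% inhibition of growth. At the TGI there is no net growth.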

Assays:
Assay in all cases: NCI-60 cell line screen, 48 h
786-0 renal = tested on: 786-0 renal
DU-145 prostate = tested on: DU-145 prostate
EKVX NSCLC = tested on: EKVX NSCLC
NCI-H226 lung = tested on: NCI-H226 lung
NCI-H23 lung = tested on: NCI-H23 lung
OVCAR-4 ovarian = tested on: OVCAR-4 ovarian
OVCAR-8 ovarian = tested on: OVCAR-8 ovarian
RPMI-8226 leukemia = tested on: RPMI-8226 leukemia
SW-620 colon = tested on: SW-620 colon
HCC-2998 colon = tested on: HCC-2998 colon

SMILES	TGI (786-0 renal)	TGI (DU-145 prostate)	TGI (EKVX NSCLC)	TGI (NCI-H226 lung)	TGI (NCI-H23 lung)	TGI (OVCAR-4 ovarian)	TGI (OVCAR-8 ovarian)	TGI (RPMI-8226 leukemia)	TGI (SW-620 colon)	GI50 (786-0 renal)	GI50 (DU-145 prostate)	GI50 (EKVX NSCLC)	GI50 (HCC-2998 colon)	TGI (HCC-2998 colon)	GI50 (NCI-H226 lung)	GI50 (NCI-H23 lung)	GI50 (OVCAR-4 ovarian)	GI50 (OVCAR-8 ovarian)	GI50 (SW-620 colon)	GI50 (RPMI-8226 leukemia)
CSc1cccc(NC(=O)OC2CCCCCCCCCCC2)c1	53.9 µM	> 100 µM	57.6 µM	61.7 µM	98 µM	45.6 µM	> 100 µM	54.4 µM	45.9 µM											
[Cl][Cd][Cl]	44.4 µM and 17.6 µM	63.6 µM	52 µM and 19.9 µM	> 69.7 µM and 43.6 µM	58.1 µM and 10.8 µM	36.1 µM and 23.7 µM	272 µM	8.71 µM and 71.5 µM and 61.8 µM	37.1 µM and 76.7 µM	21 µM and 8.67 µM	24 µM	24.7 µM and 9.95 µM	23.6 µM and 79 µM	> 63.5 µM and 158 µM	> 44 µM and 11.9 µM	3.08 µM and 25.4 µM and 2.68 µM	7.95 µM and 19.6 µM and 8.69 µM	119 µM	19.5 µM and 17.2 µM	
C=C1c2c(Cl)ccc(O)c2C(O)=C2C(=O)[C@]3(O)C(O)=C(C(N)=O)C(=O)[C@@H](N(C)C)[C@@H]3[C@@H](O)[C@H]12	5.22 µM	9.15 µM	13 µM	8.91 µM	4.14 µM	9.66 µM	8.12 µM	4.25 µM	> 50 µM	1.17 µM	1.62 µM	1.51 µM	1.32 µM	5.61 µM	1.59 µM	1.08 µM	0.347 µM	1.32 µM	1.5 µM	1.1 µM
COc1cc2c3c(n(CCCN=[N+]=[N-])c(=O)c2cc1OC)-c1ccc(N(C)C)cc1C3=O	> 100 µM	> 100 µM	> 100 µM	> 100 µM	> 100 µM	> 100 µM	> 100 µM	> 100 µM	> 100 µM	> 100 µM	> 100 µM	> 100 µM	> 100 µM	> 100 µM	> 100 µM	> 100 µM	> 100 µM	> 100 µM	> 100 µM	> 100 µM
COc1cc2c(c(OC3OC(CO)C(O)C(O)C3O)c1)C(=O)CC(c1ccc(O)cc1)O2 (configuration not stated)	> 100 µM	> 100 µM	> 100 µM	> 100 µM	> 100 µM	> 100 µM	> 100 µM	> 100 µM	> 100 µM					> 100 µM						
CN(C)CCN1C(=O)c2cccc3cccc(c23)C1=O	> 25 µM	> 25 µM	> 25 µM	> 25 µM	> 25 µM	> 25 µM	> 25 µM	> 25 µM	> 25 µM	24 µM	12.4 µM	> 25 µM	> 25 µM	> 25 µM	12.2 µM	> 25 µM	> 25 µM	13.2 µM	11.7 µM	16.6 µM
NCCSCCc1ccccc1	> 100 µM	> 100 µM	> 100 µM	> 100 µM	> 100 µM	> 100 µM	> 100 µM	> 100 µM	> 100 µM					> 100 µM						
Cc1cccc(Nc2cnc(N)nc2N)c1	> 100 µM	> 100 µM	> 100 µM	> 100 µM	> 100 µM	> 100 µM	> 100 µM	> 100 µM	> 100 µM					> 100 µM						
COc1ccc2nc(NC(=O)c3cccnc3Nc3cc(OC)c(OC)c(OC)c3)sc2c1	19.7 µM	33.8 µM	55.6 µM	96.7 µM	22.7 µM	32.6 µM	22.6 µM	34.9 µM	24.5 µM	5.6 µM	14.6 µM	11.5 µM	17 µM	39.4 µM	10.7 µM	5.38 µM	15 µM	6.52 µM	11.8 µM	9.94 µM
COC1=C2CC(C)CC(OC)C(O)C(C)/C=C(\C)C(OC(N)=O)C(OC)/C=C\C=C(/C)C(=O)NC(=C(/C=N/N3CCCCC3)C1=O)C2=O (configuration not stated)	22.8 µM	32.9 µM	14.7 µM	34.5 µM	35.3 µM	19.3 µM	16.6 µM	42 µM	8.7 µM					18.9 µM						
CC1=C(/C=C/C(C)=C/C=C/C(C)=C/CO)C(C)(C)CCC1	34.2 µM	> 100 µM	> 100 µM	50.9 µM	54.8 µM	> 100 µM			38.8 µM					36.2 µM						
O=[N+]([O-])c1ccc(S(=O)(=O)Cc2ccccc2)c2nonc12	37.5 µM	36.3 µM	41.8 µM	> 100 µM	35.5 µM	34.1 µM	49 µM	64.2 µM	48.6 µM											
OCCN1CCN(CC/C=C2\c3ccccc3Sc3ccc(Cl)cc32)CC1	3.65 µM and 8.58 µM	17.4 µM and 19.7 µM	23.7 µM and 21 µM	22.1 µM	28.2 µM and 21.4 µM	20.7 µM and 21.1 µM	28.3 µM and 19.8 µM	3.11 µM and 10.8 µM	5.48 µM and 4.01 µM	1.82 µM and 3.06 µM	5.18 µM and 7.27 µM	5.78 µM and 6.11 µM	1.99 µM and 1.68 µM	3.8 µM and 3.16 µM	6.93 µM	10.7 µM and 7.72 µM	8.38 µM and 8.18 µM	7.95 µM and 7.2 µM	2.38 µM and 1.91 µM	1.17 µM and 3.12 µM
O=C1OC(OCC#CCOC2OC(=O)C(Cl)=C2Cl)C(Cl)=C1Cl (configuration not stated)	16.8 µM	38.2 µM	40.1 µM		40.9 µM		20.8 µM	11.9 µM	18.4 µM					14.3 µM						
O=C1CC(c2ccc(Cl)cc2)Oc2ccccc21 (configuration not stated)	32.4 µM	> 100 µM	54.8 µM	33.6 µM	40.2 µM	> 100 µM	> 100 µM	9.12 µM	> 100 µM					55 µM						
O=C1C=CC(O)C2C1CC13SSC4(CC5C(=O)C=CC(O)C5N4C1=O)C(=O)N23 (configuration not stated)	0.49 µM	1.07 µM	2.33 µM	1.19 µM	0.393 µM	4.89 µM	0.271 µM	0.093 µM	0.136 µM											
CC(C)CCN[C@@H]1CCc2cc(O)c(N3CC(=O)NS3(=O)=O)c(F)c2C1	> 100 µM	> 100 µM	> 100 µM	> 100 µM	> 100 µM	> 100 µM	> 100 µM	> 100 µM	> 100 µM	> 100 µM	> 100 µM	> 100 µM	> 100 µM	> 100 µM	> 100 µM	> 100 µM	> 100 µM	> 100 µM	> 100 µM	> 100 µM
